Assay results: patent publication US10729738B2, “Hindered disulfide drug conjugates” (priority 2015, dated 2020)
Where a SMILES comes first, the peptide text is derived from it. [ ]: non-standard residue; d: D form. The star is where a group is joined. X6 = CC(C)(COC(=O)*)SSc1nc2c([N+](=O)[O-])cccc2[nH]1; Dolaproine = CO[C@@H]([C@@H]1CCCN1)[C@@H](C)C(=O)O; X3 = CC(C)(COC(=O)*)SSc1ccc([N+](=O)[O-])cn1; Dil = CC[C@H](C)[C@H](NC)[C@@H](CC(=O)O)OC; X4 = CC(C)(COC(=O)*)SSc1nc2ncnc(N)c2[nH]1; X5 = CC(C)(COC(=O)*)SSc1nc2ncccc2[nH]1; X7 = CC(C)(COC(=O)*)SSc1nc2ccccc2[nH]1; X8 = CC(C)(COC(=O)*)SSc1nc2nccnc2[nH]1; X2 = C[C@@H](N*)[C@@H](O)c1ccccc1; X9 = CC(C)(COC(=O)*)SSc1nnn[nH]1; X1 = Cn1nnnc1SSC(C)(C)COC(=O)*; NMeV = CN[C@H](C(=O)O)C(C)C

Columns and labels:
[1] = molecular target: human serum albumin Cys-34 (Homo sapiens, UniProt P02768); test: Conjugation of activated disulfide-MMAE molecules to human serum albumin (Conjugate Ratio, LC/MS); settings: disulfide MMAE compound at 10 molar equivalents relative to HSA, 75 mM Tris pH 8.5, ~16 hours at room temperature
Procedure: In a first evaluation, MMAE was conjugated to human serum albumin (HSA). […] This Cys residue is blocked as a mixed disulfide with Cys or glutathione, preventing complete conjugation of other molecules to this residue. […] Conjugate reactions were analyzed by LC/MS. The extent of the expected MMAE-HSA conjugate formed during the reaction is represented by the “Conjugate Ratio”, measured by dividing the abundance of the MS peak for the MMAE-HSA conjugate by the sum total abundance of all peaks observed. The ideal value for the Conjugate Ratio is 1.0. The results are reported in table 31 below wherein the wavy line for the leaving group represents the point of attachment to the disulfide bond, and “HSA CR” refers to human serum albumin conjugate ratio.

[2] = molecular target: T1, penetratin (AntP) peptide (Drosophila melanogaster, UniProt P02833); test: Conjugation of activated disulfide-MMAE molecules to penetratin (AntP) peptide (% Product); settings: peptide 25 uM, disulfide MMAE 5 equivalents, 75 mM Tris pH 8.5 and 10% DMF, ~16 hours at room temperature, UV peak area
T1 construct: C-terminal amide (CONH2); made in house; host or cells: chemical synthesis (Fmoc solid-phase peptide synthesis)
Procedure: In a second evaluation, MMAE was conjugated to penetratin (AntP) peptide. The AntP peptide, with sequence H2N-[…]-CONH2 (SEQ ID NO:1) bearing a free Cys thiol at the C-terminus, was synthesized via standard Fmoc solid-phase peptide synthesis methods. This peptide was conjugated at a concentration of 25 uM to disulfide MMAE molecules with varying leaving groups (5 equivalents) in a buffered solution composed of 75 mM Tris, pH 8.5 and 10% DMF for ˜16 hours at room temperature. Extent of the reaction was measured by dividing the integrated area for the UV peak of the MMAE-AntP conjugate by the sum of all peaks (“% Product”). The ideal value for % Product is 100%. The results are reported in table 31 below wherein the wavy line for the leaving group represent the point of attachment to the disulfide bond, and “AntP % P” refers to penetratin (AntP) peptide % product.

human serum albumin Cys-34, sequence (P02768 25-609): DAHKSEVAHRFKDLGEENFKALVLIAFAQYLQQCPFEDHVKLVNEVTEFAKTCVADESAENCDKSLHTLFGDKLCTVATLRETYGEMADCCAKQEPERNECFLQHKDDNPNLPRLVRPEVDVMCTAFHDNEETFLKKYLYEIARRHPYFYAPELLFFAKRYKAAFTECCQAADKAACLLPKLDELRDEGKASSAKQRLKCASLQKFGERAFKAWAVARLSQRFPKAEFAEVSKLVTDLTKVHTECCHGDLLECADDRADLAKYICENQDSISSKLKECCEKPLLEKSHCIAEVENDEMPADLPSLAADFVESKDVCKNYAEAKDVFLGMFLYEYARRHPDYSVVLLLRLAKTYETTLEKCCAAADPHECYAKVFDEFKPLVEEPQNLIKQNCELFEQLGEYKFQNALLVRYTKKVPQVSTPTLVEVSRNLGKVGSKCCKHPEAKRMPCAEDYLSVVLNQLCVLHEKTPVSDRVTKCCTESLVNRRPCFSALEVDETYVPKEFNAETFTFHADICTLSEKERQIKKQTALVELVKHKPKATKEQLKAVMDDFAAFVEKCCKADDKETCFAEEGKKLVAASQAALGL

| SMILES | HAS CR (HSA Conjugation Ratio) [1] | AntP % P (penetratin (AntP) peptide % product) [2] [%] |
| --- | --- | --- |
| CC[C@H](C)[C@@H]([C@@H](CC(=O)N1CCC[C@H]1[C@H](OC)[C@@H](C)C(=O)N[C@H](C)[C@@H](O)c1ccccc1)OC)N(C)C(=O)[C@@H](NC(=O)[C@H](C(C)C)N(C)C(=O)OCC(C)(C)SSc1nnnn1C)C(C)C (X1-[NMeV]V[Dil][Dolaproine]-X2) | 0.86 | 32 |
| CC[C@H](C)[C@@H]([C@@H](CC(=O)N1CCC[C@H]1[C@H](OC)[C@@H](C)C(=O)N[C@H](C)[C@@H](O)c1ccccc1)OC)N(C)C(=O)[C@@H](NC(=O)[C@H](C(C)C)N(C)C(=O)OCC(C)(C)SSc1ccc([N+](=O)[O-])cn1)C(C)C (X3-[NMeV]V[Dil][Dolaproine]-X2) | 0.11 | 14 |
| CC[C@H](C)[C@@H]([C@@H](CC(=O)N1CCC[C@H]1[C@H](OC)[C@@H](C)C(=O)N[C@H](C)[C@@H](O)c1ccccc1)OC)N(C)C(=O)[C@@H](NC(=O)[C@H](C(C)C)N(C)C(=O)OCC(C)(C)SSc1nc2ncnc(N)c2[nH]1)C(C)C (X4-[NMeV]V[Dil][Dolaproine]-X2) | 0.23 | 21 |
| CC[C@H](C)[C@@H]([C@@H](CC(=O)N1CCC[C@H]1[C@H](OC)[C@@H](C)C(=O)N[C@H](C)[C@@H](O)c1ccccc1)OC)N(C)C(=O)[C@@H](NC(=O)[C@H](C(C)C)N(C)C(=O)OCC(C)(C)SSc1nc2ncccc2[nH]1)C(C)C (X5-[NMeV]V[Dil][Dolaproine]-X2) | 0.84 | 12 |
| CC[C@H](C)[C@@H]([C@@H](CC(=O)N1CCC[C@H]1[C@H](OC)[C@@H](C)C(=O)N[C@H](C)[C@@H](O)c1ccccc1)OC)N(C)C(=O)[C@@H](NC(=O)[C@H](C(C)C)N(C)C(=O)OCC(C)(C)SSc1nc2c([N+](=O)[O-])cccc2[nH]1)C(C)C (X6-[NMeV]V[Dil][Dolaproine]-X2) | 0.65 | 26 |
| CC[C@H](C)[C@@H]([C@@H](CC(=O)N1CCC[C@H]1[C@H](OC)[C@@H](C)C(=O)N[C@H](C)[C@@H](O)c1ccccc1)OC)N(C)C(=O)[C@@H](NC(=O)[C@H](C(C)C)N(C)C(=O)OCC(C)(C)SSc1nc2ccccc2[nH]1)C(C)C (X7-[NMeV]V[Dil][Dolaproine]-X2) | 0.52 | 18 |
| CC[C@H](C)[C@@H]([C@@H](CC(=O)N1CCC[C@H]1[C@H](OC)[C@@H](C)C(=O)N[C@H](C)[C@@H](O)c1ccccc1)OC)N(C)C(=O)[C@@H](NC(=O)[C@H](C(C)C)N(C)C(=O)OCC(C)(C)SSc1nc2nccnc2[nH]1)C(C)C (X8-[NMeV]V[Dil][Dolaproine]-X2) | 0.63 | 36 |
| CC[C@H](C)[C@@H]([C@@H](CC(=O)N1CCC[C@H]1[C@H](OC)[C@@H](C)C(=O)N[C@H](C)[C@@H](O)c1ccccc1)OC)N(C)C(=O)[C@@H](NC(=O)[C@H](C(C)C)N(C)C(=O)OCC(C)(C)SSc1nnn[nH]1)C(C)C (X9-[NMeV]V[Dil][Dolaproine]-X2) | 0.09 | 1.9 |
